Assay results published in PMC4666608, “Metabolic Profiling of Chicken Embryos Exposed to Perfluorooctanoic Acid (PFOA) and Agonists to Peroxisome Proliferator-Activated Receptors” (PLoS ONE, 2015).
Marks after values point to notes of the source that are not given here.

Test system: chicken embryos
Assay: Metabolic profiling of allantoic fluid (GC-MS, LC-MS, OPLS-DA)
Type: in vivo, Gallus gallus domesticus
Conditions: 150 μg/egg
Procedure: Controls were injected with 20 μL vehicle only (DMSO).
Plasma was collected and stored at -70°C.
Metabolites in allantoic fluid and blood plasma were analyzed using gas chromatography-mass spectrometry (GC-MS) and liquid chromatography-mass spectrometry (LC-MS) as described in S1 Methods. Prior to GC-MS and LC-MS analysis, allantoic fluid (100 μL) and blood plasma (50 μL) were extracted. To each sample, 900 μL (allantoic fluid) or 450 μL (blood plasma) of extraction buffer (90/10 v/v methanol:water) including all internal standards were added. Standards for GC-MS were proline, succinic acid, glutamic acid, salicylic acid, alpha-ketoglutarate, putrescine, myristic acid, hexadecanoic acid, cholesterol, and sucrose. Standards for LC-MS were Val-Tyr-Val, Leu-enkephalin, sulfadimethoxine and reserpine. Samples were homogenized by shaking in a bead mill at a frequency of 30 Hz for 3 minutes and proteins were precipitated at +4°C on ice. The samples were centrifuged at +4°C, 14000 rpm, for 10 min. Then, 200 μL supernatant was transferred to a GC microvial and 200 μL was transferred to an LC microvial, and solvents were evaporated. Samples from the four replicate experiments were analyzed using in chronological order and within each replicate experiment the run order of the individual samples was randomized.
Multivariate statistical analyses of metabolite profiles were performed using the software package SIMCA-P version 13.0 (Umetrics, Umeå, Sweden). Data was centered and scaled to variance 1 (UV scaling) prior to modelling. To reduce unintended systematic variation caused by sample processing and instrument drift, GC-MS and LC-MS metabolite amounts (expressed as the area under the chromatographic peak) were normalized by Orthogonal Partial Least Squares analysis (O2PLS) prior to multivariate data analysis. O2PLS finds common (predictive) and unique (orthogonal) variation in two data matrices. If applied to find the common variation between the data matrix containing the measured metabolite concentrations and a matrix containing only the internal standards, the only common (predictive) variation expected is due to the unintended systematic variation. By deleting the contribution of the predictive latent variables, that variation can be removed from the data. Models obtained after this normalization contain in general less latent variables, and this simplification helps when deciding on the number of latent variables to be used. Following normalization, GC-MS and LC-MS data were analyzed together. Initially, a global Principal Component Analysis (PCA) was performed to get an overview of groups and trends and to identify outliers. Projections to latent structures by means of Orthogonal Partial Least Squares Discriminant Analysis (OPLS-DA) was used to model the relationship between the X-matrix (metabolite concentrations) and the Y matrix (class, i.e. exposure group or sex), and to find x-variables that were related to class belonging. OPLS-DA is a supervised prediction and regression method that rotates the projection plane to find the maximum covariance between the data and the class assignment. All groups were first analyzed together in a 5-class OPLS-DA and then each exposure group was analyzed against the control group in a 2-class OPLS-DA. Sex differences were analyzed both using the whole data set and in each group separately using 2-class OPLS-DA, with females and males as the two classes. Only variables with 80% or more nonzero values were included in the statistical models. […] The validity of each model was also checked using CV-ANOVA (ANOVA of the cross-validated residuals). A significance level of p < 0.05 was used. For each model, R ^2 X, R ^2 Y and Q ^2 values were calculated, where R ^2 X is a measure of the fraction of x variation modeled in the extracted latent variables, R ^2 Y is a measure of the fraction of y variation modeled and Q ^2 is an estimate of the predictive ability of the model and is calculated by cross-validation. […]

[1] = GC, tentative 2-Oxovaleric acid

In the case of `CN(CCOc1ccc(CC2SC(=O)NC2=O)cc1)c1ccccn1` (centres unmarked) [Rosiglitazone, rosiglitazone, reference compound], the “Mean concentration relative to control, feature Win004_C08” value (GC) is reported as 1.2**, the “Mean concentration relative to control, feature Win005_C07” value (GC) is reported as 1.2* and the “Mean concentration relative to control, feature Win008_C06” value (GC) is reported as 1.7***. The “Mean concentration relative to control, feature Win022_C01” value (GC) was 2.2***, the “Mean concentration relative to control, feature Win023_C06” value (GC) was 1.8* and the “Mean concentration relative to control, feature win006_C01” value (GC) was 2.3***. The “Mean concentration relative to control, feature Win008_C07” value (GC, tentative 1-Aminocyclopropanecarboxylic acid) was 1.1, the “Mean concentration relative to control, feature Win023_C03” value (GC, tentative 2-Oxoglutaric acid) was 2.5*** and the “Mean concentration relative to control, feature Win007_C09” value [1] was 1.3***. For the same compound, the “Mean concentration relative to control, feature Win008_C05” value [1] was 1.4***, the “Mean concentration relative to control, feature Win018_C04” value (GC, tentative 3-Amino-2-piperidone) was 1 and the “Mean concentration relative to control, feature Win007_C03” value (GC, tentative 3-Hydroxybutanoic acid) was 1.0. For the same compound, the “Mean concentration relative to control, feature Win042_C02” value (GC, tentative Cystathionine) was 1.1, the “Mean concentration relative to control, feature Win009_C03” value (GC, tentative Ketoleucine) was 1.3** and the “Mean concentration relative to control, feature Win008_C04” value (GC, tentative Malonic acid) was 1.0. The “Mean concentration relative to control, feature Win005_C03” value (GC, tentative Oxalic acid) was 0.7**, the “Mean concentration relative to control, feature Win013_C05” value (GC, tentative Succinic acid) was 1.1* and the “Mean concentration relative to control, feature 134.0239@1.1350567” value (LC) was 1.4*. The “Mean concentration relative to control, feature 145.0538@3.072527” value (LC) was 1.2, the “Mean concentration relative to control, feature 147.0328@3.0722888” value (LC) was 1.2 and the “Mean concentration relative to control, feature 160.0323@1.1950632” value (LC) was 1.2***. The “Mean concentration relative to control, feature 173.0488@3.0734746” value (LC) was 1.2, the “Mean concentration relative to control, feature 176.0952@1.3890611” value (LC) was 0.4* and the “Mean concentration relative to control, feature 178.0428@1.7582192” value (LC) was 1.3**. For the same compound, the “Mean concentration relative to control, feature 180.0048@4.421465” value (LC) was 0.9***, the “Mean concentration relative to control, feature 189.1159@1.9209185” value (LC) was 0.7** and the “Mean concentration relative to control, feature 197.0639@2.1181405” value (LC) was 1.2***. The “Mean concentration relative to control, feature 201.012@3.046474” value (LC) was 1.1, the “Mean concentration relative to control, feature 202.0429@2.9548414” value (LC) was 1.3*** and the “Mean concentration relative to control, feature 205.0533@4.421879” value (LC) was 0.9***. The “Mean concentration relative to control, feature 214.016@2.1190732” value (LC) was 1.2**, the “Mean concentration relative to control, feature 226.0107@4.421457” value (LC) was 0.9*** and the “Mean concentration relative to control, feature 236.0816@3.0720985” value (LC) was 1.2. The “Mean concentration relative to control, feature 241.0551@2.3510706” value (LC) was 1.3***, the “Mean concentration relative to control, feature 243.1118@2.1537287” value (LC) was 0.7*** and the “Mean concentration relative to control, feature 244.9972@4.421603” value (LC) was 0.96*. For the same compound, the “Mean concentration relative to control, feature 245.1563@2.2907295” value (LC) was 0.7*, the “Mean concentration relative to control, feature 250.0981@3.072492” value (LC) was 1.2 and the “Mean concentration relative to control, feature 262.0978@2.7961144” value (LC) was 1.3*. The “Mean concentration relative to control, feature 263.0855@2.2847009” value (LC) was 1.4**, the “Mean concentration relative to control, feature 270.0441@1.1407775” value (LC) was 0.7* and the “Mean concentration relative to control, feature 278.0928@3.0723689” value (LC) was 1.2. For the same compound, the “Mean concentration relative to control, feature 279.1248@2.796395” value (LC) was 1.4*, the “Mean concentration relative to control, feature 280.1425@2.730277” value (LC) was 1.1** and the “Mean concentration relative to control, feature 288.1166@2.9551322” value (LC) was 1.7**. For the same compound, the “Mean concentration relative to control, feature 289.1012@3.249983” value (LC) was 1.2, the “Mean concentration relative to control, feature 289.173@7.5030584” value (LC) was 0.7*** and the “Mean concentration relative to control, feature 294.1242@2.3692534” value (LC) was 0.7***. For the same compound, the “Mean concentration relative to control, feature 302.0508@3.0722616” value (LC) was 1.1, the “Mean concentration relative to control, feature 305.1682@5.353517” value (LC) was 1.2 and the “Mean concentration relative to control, feature 305.1684@5.2955093” value (LC) was 1.2. The “Mean concentration relative to control, feature 308.073@4.4211636” value (LC) was 0.9***, the “Mean concentration relative to control, feature 310.1181@1.5090439” value (LC) was 0.7*** and the “Mean concentration relative to control, feature 316.0389@3.0725708” value (LC) was 1.2. For the same compound, the “Mean concentration relative to control, feature 320.0626@3.0729218” value (LC) was 1.1, the “Mean concentration relative to control, feature 325.1114@2.1190624” value (LC) was 1.6*** and the “Mean concentration relative to control, feature 325.1115@2.3554378” value (LC) was 1.5**. The “Mean concentration relative to control, feature 333.1335@2.8639288” value (LC) was 0.7***, the “Mean concentration relative to control, feature 333.2005@6.5291867” value (LC) was 1.1 and the “Mean concentration relative to control, feature 335.1866@4.508565” value (LC) was 0.7***. For the same compound, the “Mean concentration relative to control, feature 337.1651@1.8737898” value (LC) was 1.6***, the “Mean concentration relative to control, feature 344.1424@2.348947” value (LC) was 1.5** and the “Mean concentration relative to control, feature 348.0553@3.0730357” value (LC) was 1.1. For the same compound, the “Mean concentration relative to control, feature 349.1651@2.4087605” value (LC) was 1, the “Mean concentration relative to control, feature 357.1997@6.9691257” value (LC) was 0.8* and the “Mean concentration relative to control, feature 371.1513@3.0009465” value (LC) was 1.4**. For the same compound, the “Mean concentration relative to control, feature 375.1819@3.672254” value (LC) was 0.9, the “Mean concentration relative to control, feature 394.167@3.9552917” value (LC) was 0.7* and the “Mean concentration relative to control, feature 414.1482@2.118972” value (LC) was 1.5***. The “Mean concentration relative to control, feature 466.0837@2.1187525” value (LC) was 1.5***, the “Mean concentration relative to control, feature 488.0753@4.419585” value (LC) was 0.8*** and the “Mean concentration relative to control, feature 498.1003@2.1184251” value (LC) was 1.4***. The “Mean concentration relative to control, feature 507.1682@2.1238236” value (LC) was 1.3*, the “Mean concentration relative to control, feature 580.1426@3.0726147” value (LC) was 1.3 and the “Mean concentration relative to control, feature 582.1578@2.1747615” value (LC) was 1.8***. The “Mean concentration relative to control, feature 588.1751@2.1182237” value (LC) was 1.5***, the “Mean concentration relative to control, feature 594.1337@3.0724604” value (LC) was 1.3 and the “Mean concentration relative to control, feature 604.1486@2.1174603” value (LC) was 1.5***. The “Mean concentration relative to control, feature 623.183@2.1249466” value (LC) was 1.8***, the “Mean concentration relative to control, feature 668.2625@6.4379454” value (LC) was 1.04** and the “Mean concentration relative to control, feature 155.0353@0.6447272” value (LC, suggested C3H10NO4P) was 0.4*. For the same compound, the “Mean concentration relative to control, feature 345.0497@1.1234403” value (LC, suggested C10H12N5O7P) was 1.6***, the “Mean concentration relative to control, feature 337.0259@4.4213357” value (LC, suggested C13H11N3O4S2) was 0.9*** and the “Mean concentration relative to control, feature 344.1427@2.1164653” value (LC, suggested C13H20N4O7) was 1.6***. The “Mean concentration relative to control, feature 331.184@6.373359” value (LC, suggested C13H25N5O5) was 1 and the “Mean concentration relative to control, feature 361.2026@5.6644735” value (LC, suggested C16H31N3O4S) was 0.7**.
